Assay results as given in patent US11364256B2, “Viral inhibition” (Monash University, priority 2020, dated 2022).

System: SARS-CoV-2 clinical isolate Australia/VIC01/2020
Assay: Multidose treatment of SARS-CoV-2 infected Vero/hSLAM or CALU-3 cells, viral load by real-time PCR
Assay type: cell-based
Conditions: drug replaced at 8, 24, 32 and 48 h, Vero/hSLAM or CALU-3, MOI 0.01
Experimental: Vero/hSLAM cells (FIG. 4, panels A/C) or CALU-3 (FIG. 4, panels B/D) cells were infected with SARS-CoV-2 clinical isolate Australia/VIC01/2020 (MOI=0.01) for 2 h prior to addition of vehicle (DMSO), Ivermectin (A/B) or Moxidectin (C/D) at the concentrations indicated in FIG. 4. Supernatant was harvested at 8, 24, 32 and 48 h and replaced with fresh media containing the same concentration of drug or DMSO. Samples were quantitated for viral load using real-time PCR. Results represent mean±SD (n=6) relative to DMSO alone under the same conditions. Three parameter dose response curves were fitted using GraphPad prism. The data presented in FIG. 4 are single typical graphs from a series of two similar experiments.

ivermectin
effect of multidose treatment on SARS-CoV-2 anti-viral activity: enhances SARS-CoV-2 anti-viral activity compared to single treatment
